These results are taken from patent US10617705B1, “Isoquercitrin compositions” (priority 2019, dated 2020).

The data set in a line: Stability of isoquercitrin (or catechin) in solution with L-arginine and sodium ascorbate at 50° C., by HPLC. Format: physicochemical. The note with it: aqueous solution with L-arginine and sodium ascorbate; for amount of intact compound remaining, of the initial amount in the solution: HPLC. On the procedure:
An exemplary isoquercitrin/L-arginine mixture was prepared by mixing 0.01 mol isoquercitrin with an aqueous solution containing 0.02 mol L-arginine, heating the mixture to 80° C. until the isoquercitrin dissolved completely, and adding 0.001 mol sodium ascorbate. After cooling, the stability of isoquercitrin was tested by heating the mixture to 50° C. and quantifying by HPLC the amount of intact isoquercitrin remaining after 0 h, 5 h, and 24 h.

Structures are written as SMILES.

Turning to `O=c1c(O[C@@H]2O[C@H](CO)[C@@H](O)[C@H](O)[C@H]2O)c(-c2ccc(O)c(O)c2)oc2cc(O)cc(O)c12` [isoquercitrin], the “amount of intact compound remaining, of the initial amount in the solution” value was 100% (5 h at 50° C.) and 98.1% (24 h at 50° C.). The compound also had a compound degraded (after 24 h at 50° C.) of 1.9%.
